Measurements published in US6855730B2, “3-methylidenyl-2-indolinone modulators of protein kinase” (Sugen, Inc., priority 1998, dated 2005).

Columns and labels:
Format in all cases: cell-based
[1] = target: T1, chimeric receptor having the extra-cellular domain of EGF-R and the intra-cellular domain of Her2 (Homo sapiens, UniProt P04626); assay: EGF-induced Her2-driven BrdU incorporation; conditions: read-out: BrdU HER 2 driven IC50
T1 construct: fused on or other part: the same chimera
Protocol: The cellular/catalytic assays described herein are performed in an ELISA format. The general procedure is as follows: a compound is introduced to cells expressing the test kinase, either naturally or recombinantly, for a selected period of time after which, if the test kinase is a receptor, a ligand known to activate the receptor is added. The cells are lysed and the lysate is transferred to the wells of an ELISA plate previously coated with a specific antibody recognizing the substrate of the enzymatic phosphorylation reaction. Non-substrate components of the cell lysate are washed away and the amount of phosphorylation on the substrate is detected with an antibody specifically recognizing phosphotyrosine compared with control cells that were not contacted with a test compound. The cellular/biologic assays described herein measure the amount of DNA made in response to activation of a test kinase, which is a general measure of a proliferative response. The general procedure for this assay is as follows: a compound is introduced to cells expressing the test kinase, either naturally or recombinantly, for a selected period of time after which, if the test kinase is a receptor, a ligand known to activate the receptor is added. After incubation at least overnight, a DNA labeling reagent such as Bromodeoxyuridine (BrdU) or 3H-thymidine is added. The amount of labeled DNA is detected with either an anti-BrdU antibody or by measuring radioactivity and is compared to control cells not contacted with a test compound.
EGF-Induced Her2-Driven BrdU Incorporation
Protocol • (1) Cells-are seeded at 8000 cells/well in DMEM, 10% CS, 2mM Gln in a 96-well plate. Cells are incubated overnight at 37° C. in 5% CO2. • (2) After 24 hours, the cells are washed with PBS, and then are serum starved in serum free medium (0% CS DMEM with 0.1% BSA) for 24 hours. • (3) On day 3, ligand (EGF=2 nM, prepared in DMEM with 0.1% BSA) and test compounds are added to the cells simultaneously. The negative control wells receive serum free DMEM with 0.1% BSA only, the positive control cells receive the ligand (EGF) but no test compound. Test compounds are prepared in serum free DMEM with ligand in a 96 well plate, and serially diluted for 7 test concentrations. • (4) After 20 hours of ligand activation, diluted BrdU labeling reagent (1:100 in DMEM, 0.1% BSA) is added and the cells are incubated with BrdU (final concentration=10 μM) for 1.5 hours. • (5) After incubation with labeling reagent, the medium is removed by decanting and tapping the inverted plate on a paper towel. FixDenat solution is added (50 μl/well) and the plates are incubated at room temperature for 45 minutes on a plate shaker. • (6) The FixDenat solution is thoroughly removed by decanting and tapping the inverted plate on a paper towel. Milk is added (5% dehydrated milk in PBS, 200 μ/well) as a blocking solution and the plate is incubated for 30 minutes at room temperature on a plate shaker. • (7) The blocking solution is removed by decanting and the wells are washed once with PBS. Anti-BrdU-POD solution (1:100 dilution in PBS, 1% BSA) is added (100 μl/well) and the plate is incubated for 90 minutes at room temperature on a plate shaker. • (8) The antibody conjugate is thoroughly removed by decanting and rinsing the wells 5 times with PBS, and the plate is dried by inverting and tapping on a paper towel. • (9) TMB substrate solution is added (100 μl/well) and incubated for 20 minutes at room temperature on a plate shaker until color development is sufficient for photometric detection. • (10) The absorbance of the samples are measured at 410 nm (in “dual wavelength” mode with a filter reading at 490 nm, as a reference wavelength) on a Dynatech ELISA plate reader.

SKOV3 cells = assay: SKOV3 growth assay (2% FBS); conditions: Homo sapiens, SK-OV-3, read-out: SKOV3 growth (2% FBS) IC50
A431 cells = assay: A431 growth assay (2% FBS); conditions: Homo sapiens, A-431, read-out: A431 growth (2% FBS) IC50

T1 sequence (P04626 676-1255 limits assumed, change not shown): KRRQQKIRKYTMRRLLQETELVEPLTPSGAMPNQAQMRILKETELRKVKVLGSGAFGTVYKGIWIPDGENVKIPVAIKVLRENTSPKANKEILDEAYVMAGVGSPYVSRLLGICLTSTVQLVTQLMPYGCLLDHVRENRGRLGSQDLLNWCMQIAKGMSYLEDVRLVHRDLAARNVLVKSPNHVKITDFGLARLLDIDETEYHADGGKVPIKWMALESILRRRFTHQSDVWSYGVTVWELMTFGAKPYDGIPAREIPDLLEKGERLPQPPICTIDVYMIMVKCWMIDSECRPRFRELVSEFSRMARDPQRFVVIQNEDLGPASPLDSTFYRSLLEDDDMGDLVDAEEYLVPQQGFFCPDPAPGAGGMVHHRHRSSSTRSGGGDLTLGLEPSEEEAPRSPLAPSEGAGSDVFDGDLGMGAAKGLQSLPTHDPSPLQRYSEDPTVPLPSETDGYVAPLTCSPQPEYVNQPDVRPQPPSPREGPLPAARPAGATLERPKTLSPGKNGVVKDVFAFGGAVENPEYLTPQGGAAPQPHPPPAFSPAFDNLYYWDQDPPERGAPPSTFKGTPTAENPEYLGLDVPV

Row | SMILES | IC50 [1] [µM] | IC50 (SKOV3 cells) [µM] | IC50 (A431 cells) [µM]
1 | COc1cc(/C=C2/C(=O)Nc3ccccc32)c(-c2ccc3ccccc3c2)cc1OC [Example 62, 3-(4,5-Dimethoxy-2-naphthalen-2-ylbenzylidene)-1,3-dihydroindol-2-one] | 28.8 | 6.1 | 6
2 | CC(=O)Nc1ccc2c(c1)NC(=O)/C2=C/c1ccc(OCCN2CCOCC2)c(-c2cccs2)c1 [Example 40, N-{3-[4-(2-Morpholin-4-ylethoxy)-3-thiophen-2-ylbenzylidene]-2-oxo-2,3-dihydro-1H-indol-6-yl}-acetamide] | 22.6 | 22.5 | 14.2
3 | COc1cc(C)c(/C=C2/C(=O)Nc3ccc(Br)cc32)cc1C(C)C [Example 36, 5-Bromo-3-(5-isopropyl-4-methoxy-2-methyl-benzylidene)-1,3-dihydroindol-2-one] | 21.4 | > 25 | > 25
4 | COC(=O)c1ccc2c(c1)/C(=C\c1cc(C(C)C)c(OC)c(C(C)C)c1)C(=O)N2 [Example 6, 3-(3,5-Diisopropyl-4-methoxybenzylidene)-2-oxo-2,3-dihydro-1H-indole-5-carboxylic acid methyl ester] | 4.7 | 19.4 | 2.9
5 | COc1ccc(/C=C2/C(=O)Nc3ccccc32)cc1C1CCCC1 [Example 10, 3-(3-Cyclopentyl-4-methoxybenzylidene)-1,3-dihydroindol-2-one] | 14.1 | 11.2 | 8.5
6 | COc1ccc(/C=C2/C(=O)Nc3ccc(Cl)cc32)cc1-c1cccnc1 [Example 60] | 40 | 4.8 | 5.9
7 | COc1ccc(/C=C2/C(=O)Nc3ccccc32)cc1C(C)C [Example 7, 3-(3-Isopropyl-4-methoxybenzylidene)-1,3-dihydroindol-2-one] | 16.5 | 2.5 | 1.2
8 | CC1(C)CCc2cc(C=C3C(=O)Nc4ccc(Br)cc43)ccc2O1 (racemic) [Example 34, 5-Bromo-3-(2,2-dimethylchroman-6-ylmethylene)-1,3-dihydroindol-2-one] | 3.5 | 7.6 | 4.4
9 | COc1ccc(/C=C2/C(=O)Nc3ccc(Cl)cc32)cc1-c1cccs1 [Example 59, 5-chloro-3-(4-Methoxy-3-thiophen-2-ylbenzylidene)-1,3-dihydroindol-2-one] | 14.4 | 17.2 | 6
10 | COc1ccc(/C=C2/C(=O)Nc3ncccc32)cc1C1CCCC1 [Example 47, 3-(3-Cyclopentyl-4-methoxybenzylidene)-1,3-dihydropyrrolo[2,3-b]pyridin-2-one] | > 50 | 46.9 | 40.4
11 | CCOc1cccc(-c2cc(OC)c(OC)cc2/C=C2/C(=O)Nc3ccccc32)c1 [Example 58, 3-(3′-Ethoxy-4,5-dimethoxybiphenyl-2-ylmethylene)-1,3-dihydroindol-2-one] | 13.5 | 22 | 10.5
12 | COc1cc(C=C2C(=O)Nc3ccccc32)c(-c2ccccc2OC)cc1OC [Example 49, 3-(4,5,2′-Trimethoxybiphenyl-2-ylmethylene)-1,3-dihydroindol-2-one] | 9.1 | 20.6 | 20.7
13 | COc1ccc(C=C2C(=O)Nc3ccccc32)cc1-c1cccc(NC(C)=O)c1 [Example 29, N-[2′-Methoxy-5′-(2-oxo-1,2-dihydroindol-3-ylidenemethyl)-biphenyl-3-yl]-acetamide] | 8.1 | 7.9 | 5.6
14 | CC(C)c1cc(/C=C2/C(=O)Nc3ccc(Br)cc32)cc(C(C)C)c1OCCN1CCOCC1 [Example 57, 5-Bromo-3-[3,5-diisopropyl-4-(2-morpholin-4-ylethoxy)benzylidene]-1,3-dihydroindol-2-one] | 9.6 | 4 | 5.8
15 | COc1ccc(C=C2C(=O)Nc3cc(NC(C)=O)ccc32)cc1-c1cccc(NC(C)=O)c1 (mixture of isomers) [Example 63, N-[3-(3′-Acetylamino-6-methoxybiphenyl-3-ylmethylene)-2-oxo-2,3-dihydro-1H-indol-6-yl]-acetamide] | 20.4 | > 25 | 11
16 | COc1cc(C)c(/C=C2/C(=O)Nc3ccc(F)cc32)cc1C(C)C [Example 30, 5-Fluoro-3-(5-isopropyl-4-methoxy-2-methyl-benzylidene)-1,3-dihydroindol-2-one] | 8.1 | 16 | 9.9
17 | CCOc1cccc(-c2cc(C=C3C(=O)Nc4ccccc43)ccc2OC)c1 [Example 46, 3-(3′-Ethoxy-6-methoxybiphenyl-3-ylmethylene)-1,3-dihydroindol-2-one] | 25.3 | 7.7 | 5.5
18 | COc1ccc(/C=C2/C(=O)Nc3cc(NC(C)=O)ccc32)cc1-c1cccs1 [Example 31, N-[3-(4-Methoxy-3-thiophen-2-ylbenzylidene)-2-oxo-2,3-dihydro-1H-indol-6-yl]-acetamide] | 28.7 | 0.4 | 0.3
